Three compounds from patent US12208118B2, “Pharmaceutical compositions for delivery of peptide” (ANYA BIOPHARM INC., priority 2017, dated 2025) can be followed below.

The nature of series [1]: Quantification of liraglutide level in dog plasma using ELISA kit. It is filed as in vivo. The settings on record: following subcutaneous and oral administration, dogs. As to the method:
Quantification of Liraglutide Level in Dog Plasma Using ELISA Kit
Test formulation I: Liraglutide—Appearance: Solution for injection in a prefilled pen; Concentration: 6 mg/ml; Date of manufacture: February 2017; Date of expiry: July 2019; Storage condition: 2-8° C.; Dose: 0.6 mg/dog; Route: SC.
Test formulation II (FA): MIRA 5 (Table 15E)+PA 2 (Table 16F)—Dose: 12 mg (one capsule)/dog; Route: Oral.
Test formulation III (G): MIRA 5 (Table 15E)+PA 3+4 (Table 16G)—Dose: 12 mg (one capsule)/dog; Route: Oral
The clinical signs observed are normal. Body weights of the dogs used in the study were recorded prior to dosing. During the period of dose administration, the dogs (Canis lupus familiaris. Breed: Beagle) were fasted (water allowed) overnight for approx. 12 hours prior to and 4 hours post dose administration. During dosing, the blood collection time points was at 0, 20, 30, 60, 120, 180, 240, 480 minutes post dose. […] Glucose was measured immediately after blood collection using Glucometer. […]
Kit Protocol: Used manufacturer recommended protocol (Cat.No.KBI5020) Ver2.0—(1) Determine wells for diluted standard, blank and sample. […] Add 50 μL each of dilutions of standard (read Reagent Preparation), blank and samples into the appropriate wells, respectively. […] Then, run the microplate reader and conduct measurement at 450 nm immediately.
In general terms: In an ELISA, binding on a coated surface is turned into a signal by an enzyme label.

Series [2] in a line: Quantification of octreotide in rat plasma using ELISA kit. It is filed as in vivo, S.D. rat. Conditions: following subcutaneous and distal small intestine (ileum) administration, rats. As to the method:
Quantification of Octreotide in Rat Plasma Using ELISA Kit
Test formulation I: Octreotide—Apprearance: Solution for injection; Concentration: 0.1 mg/ml; Storage condition: 2-8° C.; Dose: 10 μg/kg; Route: SC.
Test formulation II: MIRA 3 (Table 15C)+PA 1 (Table 16C) to be dosed into distal small intestine (ileum) to anesthetized S.D. rat; Dose: 144 μg/animal; Route: distal small intestine (ileum). During the experiment, the animals were non-fasted.
The clinical signs observed are normal. During dosing, the blood collection time points were at 0, 7, 15, 30, 45, 60 and 90 min post dose. ˜100 μl of blood was collected in a pre-filled Na-EDTA eppendorf, from retro-orbital sinus puncture. Blood was centrifuged at 5000 rpm, 5 min, 4° c. to obtain plasma.
Source: PeninsulaLaboratories International, Inc, Cat. No. S-1341.0001
Kit Protocol: Used manufacturer recommended protocol (Cat. No. S-1341.0001)—Into each well of the immunoplate add 25 μl antiserum (in EIA buffer). Add 25 μl EIA buffer to blank wells; Incubate at room temperature for 1 hour; Add 50 μl standard or sample (in diluent). […] Add 50 μl diluent to blank wells; Incubate at room temperature for 2 hours. […] You may read the developing blue color at 650 nm and use the data for your calculations. […] Read absorbance at 450 nm within ten minutes.

Series [3] can be described thus: Quantification of teriparatide in rat plasma using ELISA kit. The format is in vivo, S.D. rats. Conditions: following subcutaneous and distal small intestine (ileum) administration, rats. As for the experimental part: Quantification of Teriparatide in Rat Plasma Using ELISA Kit
Test formulation I: Teriparatide; Apprearance: Solution for injection; Concentration: 600 μg/2.4 ml; Storage condition: 2-8° C.; Dose: 10 μg/animal; Route: SC.
Test formulation II: MIRA 4 (Table 15D) plus PA1 (Table 16D) was dosed into distal small intestine (ileum) at a dose of 240 μg/animal to anesthetized rats; Dose: 240 μg/animal; Route: distal small intestine (ileum).
Test formulation III: MIRA 1 (Table 15A) plus PA3 (Table 16E) was dosed into distal small intestine (ileum) at a dose of 240 μg/animal to anesthetized S.D. rats; Dose: 240 μg/animal; Route: distal small intestine (ileum).
During the experiment, the animals were non-fasted. […] The clinical signs observed are normal. […]
Kit Protocol: Used manufacturer recommended protocol (Cat.No. 60-3900)—Place a sufficient number of Streptavidin Coated Strips in a holder to run PTH standards, controls and unknown samples; Pipet 150 μL of standard, control, or sample into the designated or mapped well. […] Read the absorbance at 620 nm (see Note) within 5 minutes in a microtiter plate reader against the 0 μg/mL Standard wells as a blank; Immediately pipet 50 μL of ELISA Stop Solution into each of the wells. […]

On to `CCCCCCCCCCCCCCCC(=O)N[C@@H](CCC(=O)NCCCC[C@H](NC(=O)[C@H](C)NC(=O)[C@H](C)NC(=O)[C@H](CCC(N)=O)NC(=O)CNC(=O)[C@H](CCC(=O)O)NC(=O)[C@H](CC(C)C)NC(=O)[C@H](Cc1ccc(O)cc1)NC(=O)[C@H](CO)NC(=O)[C@H](CO)NC(=O)[C@@H](NC(=O)[C@H](CC(=O)O)NC(=O)[C@H](CO)NC(=O)[C@@H](NC(=O)[C@H](Cc1ccccc1)NC(=O)[C@@H](NC(=O)CNC(=O)[C@H](CCC(=O)O)NC(=O)[C@H](C)NC(=O)[C@@H](N)Cc1cnc[nH]1)[C@@H](C)O)[C@@H](C)O)C(C)C)C(=O)N[C@@H](CCC(=O)O)C(=O)N[C@@H](Cc1ccccc1)C(=O)N[C@H](C(=O)N[C@@H](C)C(=O)N[C@@H](Cc1c[nH]c2ccccc12)C(=O)N[C@@H](CC(C)C)C(=O)N[C@H](C(=O)N[C@@H](CCCNC(=N)N)C(=O)NCC(=O)N[C@@H](CCCNC(=N)N)C(=O)NCC(=O)O)C(C)C)[C@@H](C)CC)C(=O)O` [Liraglutide], for which, in series [1], the clinical signs result is “normal” and the mortality entry is “no mortality observed”.

As for `C[C@@H](O)[C@@H]1NC(=O)[C@H](CCCCN)NC(=O)[C@@H](Cc2c[nH]c3ccccc23)NC(=O)[C@H](Cc2ccccc2)NC(=O)[C@@H](NC(=O)[C@H](N)Cc2ccccc2)CSSC[C@@H](C(=O)N[C@H](CO)[C@@H](C)O)NC1=O` [octreotide], in series [2], the clinical signs result is “normal” and the mortality result was “no mortality observed”.

On to `CC[C@H](C)[C@H](NC(=O)[C@H](CCC(=O)O)NC(=O)[C@H](CO)NC(=O)[C@@H](NC(=O)[C@@H](N)CO)C(C)C)C(=O)N[C@@H](CCC(N)=O)C(=O)N[C@@H](CC(C)C)C(=O)N[C@@H](CCSC)C(=O)N[C@@H](Cc1cnc[nH]1)C(=O)N[C@@H](CC(N)=O)C(=O)N[C@@H](CC(C)C)C(=O)NCC(=O)N[C@@H](CCCCN)C(=O)N[C@@H](Cc1cnc[nH]1)C(=O)N[C@@H](CC(C)C)C(=O)N[C@@H](CC(N)=O)C(=O)N[C@@H](CO)C(=O)N[C@@H](CCSC)C(=O)N[C@@H](CCC(=O)O)C(=O)N[C@@H](CCCN=C(N)N)C(=O)N[C@H](C(=O)N[C@@H](CCC(=O)O)C(=O)N[C@@H](Cc1c[nH]c2ccccc12)C(=O)N[C@@H](CC(C)C)C(=O)N[C@@H](CCCN=C(N)N)C(=O)N[C@@H](CCCCN)C(=O)N[C@@H](CCCCN)C(=O)N[C@@H](CC(C)C)C(=O)N[C@@H](CCC(N)=O)C(=O)N[C@@H](CC(=O)O)C(=O)N[C@H](C(=O)N[C@@H](Cc1cnc[nH]1)C(=O)N[C@@H](CC(N)=O)C(=O)N[C@@H](Cc1ccccc1)C(=O)O)C(C)C)C(C)C` [teriparatide], for which, in series [3], the clinical signs entry is recorded as “normal” and the mortality entry is “no mortality observed”.
